Measurements: US20250000043A1, “NON-TRANSGENIC SUNFLOWER PLANTS HAVING INCREASED TOLERANCE TO HERBICIDES” (BASF Agricultural Solutions Seed US LLC, priority 2021, published 2025)

What was measured:
[1] = tested on: wild type (WT) sunflower line (RHA473); assay: Greenhouse PPO cross-tolerance trial, wild type (Example 7); format: in vivo
Method: (§1) In August of 2021, a greenhouse herbicide trial was carried out in Zwijnaarde, Belgium. A homozygous PPO2_F4201 sunflower seed lot (HA452-M), and a wild type (WT) sunflower line (RHA473) were used in the greenhouse trial. Sixteen homozygous PPO2_F4201 mutant plants and six WT plants were sown and treated with each herbicide. […]

[2] = tested on: homozygous PPO2_F4201 sunflower (HA452-M); assay: Greenhouse PPO cross-tolerance trial, mutant (Example 7); format: in vivo; settings: for recovery of PPO2_F4201 plants after early phytotoxicity at 4 DAT: 10 DAT; for survival of PPO2_F4201 plants: all rates tested, MSO 1% v/v
Method: as §1

[3] = tested on: Wild Type (WT) sunflower line; assay: Field PPO cross-tolerance trial, wild type (Example 8); format: in vivo; settings: for Phytotoxicity (%) Wild Type (WT) 6DAT / Phytotoxicity (%) Wild Type (WT) 11DAT / Phytotoxicity (%) Wild Type (WT) 14DAT: MSO 1% v/v
Method: (§2) A field trial was carried out to assess PPO cross-tolerance in non-introgressed, selfed, homozygous PPO2_F4201 mutants, as well as to assess tolerance differences using increasing rates of herbicides listed in Table 5. The field trial was done in Utrera, Spain, in September of 2021.
(§3) Herbicide treatments (Table 5) were applied in the field when plants had the BBCH12-14 growth stage (2-4 leaves). The field trial design was the randomized complete block design, and 1 replication was considered due to limitation in seed availability. Two entries were used in the field trial, the WT line and the PPO2_F4201 mutant. The experimental plot consisted of 1 entry per plot and 1 row per entry.
(§4) Phytotoxicity of mutant and WT entries was recorded over time, at 6, 11 and 14 DAT, where 100% phytotoxicity indicates complete control (dead plants), and 0% phytotoxicity indicates no control or alive plants without any herbicide injury.

[4] = tested on: PPO2_F420I Mutant sunflower; assay: Field PPO cross-tolerance trial, mutant (Example 8); format: in vivo; settings: for Phytotoxicity (%) PPO2_F420I Mutant 6DAT / Phytotoxicity (%) PPO2_F420I Mutant 11DAT / Phytotoxicity (%) PPO2_F420I Mutant 14DAT: MSO 1% v/v
Method: as §2, §3, §4

[5] = tested on: conventional sunflowers (Edison, ES Coloris Clearfield, inbred line HA452); assay: Field trials of sunflower sensitivity to saflufenacil (Example 1); format: in vivo, Helianthus annuus
Method: Research was conducted to evaluate the sensitivity of sunflower to the herbicide comprising the active ingredient (AI) saflufenacil (Trade name: Kixor™). The herbicide was applied in 2 field trials at different rates ranging from 0.91 g to 14 g a.i./ha (with 0.5-1% MSO-methylated seed oil-adjuvant) to 2 commercial sunflower varieties [a) a conventional (non-herbicide tolerant) sunflower (“Edison”) which is a linoleic oil-type sunflower, and b) a herbicide tolerant sunflower (“ES Coloris Clearfield which is a linoleic oil-type sunflower] and a public inbred line HA452, from the USDA (United States Department of Agriculture) National Plant Germplasm System (NPGS), deposited under Accession No. PI 642771. The treated plants were at the 2-to-4 leaf-stage (BBCH12-14). Trials were set up in a randomized complete block design with 3 replications and rated for herbicide phytotoxicity (percentage damage) 3, 7, 10 and 14 days after treatment (see also Example 4 for more details). Herbicide phytotoxicity ranges from 0% phytotoxicity (full tolerance) to 100% phytotoxicity (full susceptibility or absence of tolerance).
Full control of all sunflower materials was even observed at the first phytotoxicity evaluation time point, 3 days after treatment (DAT) with saflufenacil (results not shown).
The second field trial (trial 2) compared the adjuvant MSO at two concentrations: 1% v/v, concentration used by the farmer and 0.5%, half the concentration (FIG. 2). With the MSO concentration of 0.5% v/v, which lowers the general herbicidal efficacy of saflufenacil in weeds, control of all sunflower materials was around 80% at the lowest rate of saflufenacil (0.91 g a.i./ha) and 100% at 1.75 g a.i./ha and higher (FIG. 2).

[6] = tested on: progeny of mutant lead LIH16358 (PPO2_F383I); assay: Greenhouse re-assessment of saflufenacil tolerance, mutant progeny (Example 3); format: in vivo, Helianthus annuus
Description: (§5) As it is not uncommon that in forward field mutant screening for herbicide tolerance ‘false’ tolerant plants are selected, the field candidates were reassessed in the greenhouse. Field harvested seeds of the mutant lead LIH16358 were planted in the greenhouse on Nov. 26, 2019, in Limburgerhof, Germany. The greenhouse trial had the objective to verify if the progeny of mutant lead LIH16358 would survive treatment with saflufenacil. Seeds of the susceptible wild type (HA452) line were planted in the same greenhouse trial as the susceptible reference. Saflufenacil was sprayed at 2.5 g a.i./ha on Dec. 10, 2019. The 2.5 g a.i./ha of saflufenacil corresponds to 12.5 g a.i./ha in field conditions. The final phytotoxicity evaluation in the treated plants was done on Dec. 24, 2019.
(§6) The tolerant progeny individuals of mutant lead LIH16358 produced seeds, which were planted in a follow up greenhouse trial on May 19, 2020. The plants were sprayed with 2.0 g a.i./ha of saflufenacil on Jun. 3, 2020.

[7] = tested on: susceptible wild type (HA452) line; assay: Greenhouse re-assessment of saflufenacil tolerance, wild type reference (Example 3); format: in vivo, Helianthus annuus
Description: as §5, §6

[8] = tested on: PPO2_F383I mutant lines; assay: Advanced field trial with saflufenacil, Utrera 2021 (Example 4); format: in vivo, Helianthus annuus
Method: M6 seed of eleven lines all originating from the nine plants carrying the PPO2_F383I mutation but with a different pedigree were assessed in an advanced field trial. The advanced field trial was manually planted in Utrera, Spain, on May 3, 2021. One row per mutant entry per plot was considered, and thirty-two seeds were planted per mutant entry per row per plot. Saflufenacil was applied in four increasing rates (0×: 0 g a.i/ha, 0.5×=12.5 g a.i./ha; 1×=25 g a.i./ha and 2×=50 g a.i./ha) when plants were at the BBCH12-14 growth stage. Saflufenacil application took place on Jul. 26, 2021. The field trial design was a strip-block design with four replications.
Phytotoxicity evaluations were done at 2, 5, 12, 19 and 26 days after treatment (DAT) with saflufenacil. As discussed previously, phytotoxicity of the mutant entries and wild type control were scored in each of the evaluation days after saflufenacil treatment. Eleven mutant lines were tested. The field tested one mutant line per row 32 seeds per row, for each saflufenacil rate treatment and replication, this means every plot was made of a single row, so the plot was the row for each mutant line. The phytotoxicity % score was given for each row in comparison to the untreated row of the same mutant line (control), meaning all 11 mutant lines were assessed for phytotoxicity % in all treatments and replications. Phytotoxicity was visually recorded at each evaluation time after saflufenacil application on a per plot basis based on the rating scale table (below).
To better reflect the tolerance of surviving plants, data were expressed in percent herbicide tolerance efficacy by using the formula below:
where: • 0% means no tolerance • 100% means full tolerance

[9] = target: wild-type PPO2 enzyme (Helianthus annuus, UniProt A0A251TWC2); assay: In vitro PPO inhibition assay, wild type enzyme (Example 5); format: biochemical, sunflower
Description: (§7) To test whether the PPO2_F383I is the main cause of the observed saflufenacil tolerance, we used an in vitro to compare the inhibition potency (IC50) of different PPO inhibiting herbicides between wild-type and mutant PPO2 enzyme. The in vitro assay assesses the oxidation of protoporphyrinogen IX to protoporphyrin IX, catalyzed by the PPO enzyme. Both the wild type and mutant PPO2 proteins were heterologously expressed in E. coli and purified. Purified protein was mixed with different concentrations of the herbicide ranging from 10^−5M to 10^−11M and protein activity was measured. Protein activity is defined as the fluorescence per minute that the reaction generates. In the reaction, the purified PPO enzyme is mixed with substrate protoporphyrinogen IX and the herbicide. The product of the reaction is excited at 405 nm and produces a fluorescence at 630 nm which we detect. IC50 (in Mol) and tolerance factor were calculated.

[10] = target: PPO2_F383I mutant PPO2 enzyme (Helianthus annuus, UniProt A0A251TWC2, F383I); assay: In vitro PPO inhibition assay, mutant enzyme (Example 5); format: biochemical, sunflower
Description: as §7

[11] = tested on: PPO2_F383I mutant PPO2 enzyme; assay: as above; format: biochemical, sunflower; settings: PPO2_F383I versus wild type IC50
Description: as §7

PPO2_F383I mutant PPO2 enzyme (Helianthus annuus, UniProt A0A251TWC2, F383I), sequence (A0A251TWC2 entry or part of it F383I): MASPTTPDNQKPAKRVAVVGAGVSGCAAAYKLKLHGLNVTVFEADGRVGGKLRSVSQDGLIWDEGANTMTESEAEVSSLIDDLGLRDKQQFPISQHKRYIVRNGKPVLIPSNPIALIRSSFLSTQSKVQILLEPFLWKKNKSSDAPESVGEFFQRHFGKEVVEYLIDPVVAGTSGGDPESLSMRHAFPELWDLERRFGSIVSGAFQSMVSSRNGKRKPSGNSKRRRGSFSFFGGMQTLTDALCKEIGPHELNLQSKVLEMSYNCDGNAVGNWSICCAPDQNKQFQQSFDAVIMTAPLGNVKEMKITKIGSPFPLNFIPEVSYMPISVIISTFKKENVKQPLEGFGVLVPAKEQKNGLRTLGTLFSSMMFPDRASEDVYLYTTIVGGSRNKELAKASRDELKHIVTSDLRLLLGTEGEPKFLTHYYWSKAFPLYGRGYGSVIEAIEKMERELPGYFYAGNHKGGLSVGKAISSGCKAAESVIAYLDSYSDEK
wild-type PPO2 enzyme, sequence (A0A251TWC2 entry or part of it): as the sequence (A0A251TWC2 entry or part of it F383I) above, with I383F counted along it

C#CCN1C(=O)COc2cc(F)c(N3C(=O)C4=C(CCCC4)C3=O)cc21 [Flumioxazin]
surviving WT plants ([1]; 4 g/ha, 10 DAT): one | phytotoxicity score of WT plants ([1]; dose as low as 4 g/ha, greenhouse): 90-100% | recovery of PPO2_F4201 plants after early phytotoxicity at 4 DAT [2]: consistent survival and recovery | survival of PPO2_F4201 plants [2]: survived at all rates | Phytotoxicity (%) Wild Type (WT) 6DAT ([3]; 45 g a.i./ha): 80% | Phytotoxicity (%) Wild Type (WT) 11DAT ([3]; 45 g a.i./ha): 75% | Phytotoxicity (%) Wild Type (WT) 14DAT ([3]; 45 g a.i./ha): 75% | Phytotoxicity (%) Wild Type (WT) 6DAT ([3]; 55 g a.i./ha): 80% | Phytotoxicity (%) Wild Type (WT) 11DAT ([3]; 55 g a.i./ha): 70% | Phytotoxicity (%) Wild Type (WT) 14DAT ([3]; 55 g a.i./ha): 70% | Phytotoxicity (%) Wild Type (WT) 6DAT ([3]; 65 g a.i./ha): 85% | Phytotoxicity (%) Wild Type (WT) 11DAT ([3]; 65 g a.i./ha): 80% | Phytotoxicity (%) Wild Type (WT) 14DAT ([3]; 65 g a.i./ha): 80% | WT control level ([3]; across flumioxazin rates (45, 55, 65 g a.i./ha)): 75-80% | Phytotoxicity (%) PPO2_F420I Mutant 6DAT ([4]; 45 g a.i./ha): 20% | Phytotoxicity (%) PPO2_F420I Mutant 11DAT ([4]; 45 g a.i./ha): 20% | Phytotoxicity (%) PPO2_F420I Mutant 14DAT ([4]; 45 g a.i./ha): 10% | Phytotoxicity (%) PPO2_F420I Mutant 6DAT ([4]; 55 g a.i./ha): 30% | Phytotoxicity (%) PPO2_F420I Mutant 11DAT ([4]; 55 g a.i./ha): 25% | Phytotoxicity (%) PPO2_F420I Mutant 14DAT ([4]; 55 g a.i./ha): 15% | Phytotoxicity (%) PPO2_F420I Mutant 6DAT ([4]; 65 g a.i./ha): 30% | Phytotoxicity (%) PPO2_F420I Mutant 11DAT ([4]; 65 g a.i./ha): 30% | Phytotoxicity (%) PPO2_F420I Mutant 14DAT ([4]; 65 g a.i./ha): 20%

CC(C)N(C)S(=O)(=O)NC(=O)c1cc(-n2c(=O)cc(C(F)(F)F)n(C)c2=O)c(F)cc1Cl [Saflufenacil]
phytotoxicity ([5]; 0.91 g a.i./ha, 1% v/v MSO): 100% | control of sunflower materials ([5]; 1% MSO v/v, all applied rates (0.91 to 14 g a.i./ha), field trial 2): total control | control of all sunflower materials ([5]; 1.75 g a.i./ha and higher, MSO 0.5% v/v, field trial 2): 100% | control of all sunflower materials ([5]; field trial 1, 3 days after treatment): Full control | control of all three sunflower materials ([5]; field trial 1, lowest saflufenacil rate, after 14 days): completed controlled | phytotoxicity of individuals ([6]; 2.0 g a.i./ha, second generation progenies, 14 DAT): ≥ 25% | survival after treatment ([6]; 2.5 g a.i./ha, first generation progeny): survived saflufenacil treatment | phytotoxicity ([7]; 2.0 g a.i./ha, 14 DAT): 100% | control of wild type reference plants ([7]; 2.5 g a.i./ha): completely controlled and dead | survival and seed production ([8]; 50 g a.i./ha in the field): survive and produce seeds | impact on days to 50% flowering versus untreated ([8]; across entries and saflufenacil rates): ≤ 5 days | tolerance efficacy (%) ([8]; all eleven mutant lines, all rates (12.5, 25, 50 g a.i./ha)): high tolerance efficacy | plant recovery ([8]; all rates including 2x (50 g a.i./ha)): start to significantly recover at 19 DAT | phytotoxicity at peak, compared to untreated controls ([8]; eleven mutant entries, field, 12.5, 25 and 50 g a.i./ha): higher than 15% | plant height, treated versus untreated ([8]; when flowering was completed, 73 DAT): untreated plants showed a greater plant height compared to treated plants | IC50 [9]: 0.00146 µM | IC50 ([10]; IC50 for PPO2_F383I): 4.36 µM | IC50 ([10]; PPO2_F383I IC50, purified enzyme expressed in E. coli, herbicide 10^-5 M to 10^-11 M): 4.23 µM | Tolerance factor [11]: 2897 | kill of WT plants ([1]; dose as low as 1.25 g/ha, greenhouse, MSO 1% v/v): all killed | recovery of PPO2_F4201 plants after early phytotoxicity at 4 DAT [2]: consistent survival and recovery | survival of PPO2_F4201 plants [2]: survived at all rates | Phytotoxicity (%) Wild Type (WT) 6DAT ([3]; 3.125 g a.i./ha): 100% | Phytotoxicity (%) Wild Type (WT) 11DAT ([3]; 3.125 g a.i./ha): 100% | Phytotoxicity (%) Wild Type (WT) 14DAT ([3]; 3.125 g a.i./ha): 100% | Phytotoxicity (%) Wild Type (WT) 6DAT ([3]; 6.25 g a.i./ha): 100% | Phytotoxicity (%) Wild Type (WT) 11DAT ([3]; 6.25 g a.i./ha): 100% | Phytotoxicity (%) Wild Type (WT) 14DAT ([3]; 6.25 g a.i./ha): 100% | phytotoxicity in the WT background ([3]; saflufenacil 3.125 and 6.25 g a.i./ha): 100% | Phytotoxicity (%) PPO2_F420I Mutant 6DAT ([4]; 3.125 g a.i./ha): 40% | Phytotoxicity (%) PPO2_F420I Mutant 11DAT ([4]; 3.125 g a.i./ha): 35% | Phytotoxicity (%) PPO2_F420I Mutant 14DAT ([4]; 3.125 g a.i./ha): 35% | Phytotoxicity (%) PPO2_F420I Mutant 6DAT ([4]; 6.25 g a.i./ha): 45% | Phytotoxicity (%) PPO2_F420I Mutant 11DAT ([4]; 6.25 g a.i./ha): 40% | Phytotoxicity (%) PPO2_F420I Mutant 14DAT ([4]; 6.25 g a.i./ha): 40% | survival of the PPO2_F4201 mutant ([4]; all rates of saflufenacil): survives | maximum phytotoxicity in the PPO2_F4201 mutants ([4]; at 11 and 14 DAT): 40%
